Measurements published in patent publication US20060057669A1, “Inactive transcription factor tif-ia and uses thereof” (priority 2002, published 2006).

Legend:
Pol I = experiment: Co-immunoprecipitation of Pol I with TIF-IA mutants from HEK293T cells; type: binding, human
Protocol: (§1) (B) A mutant that mimics phosphorylation of TIF-IA at S199 fails to interact with Pol I and TIF-IB. FLAG-tagged wild-type TIF-IA or the indicated point mutants were overexpressed in HEK293T cells and immunoprecipitated from cell lysates with anti-FLAG antibodies (M2 agarose). Co-precipitated Pol I and TIF-IB/SL1 were visualized on Western blots with anti-RPA116 and anti-TAFI110 antibodies.
(§2) Immunoprecipitations were carried out from human cells overexpressing FLAG-tagged TIF-IA. Cells were lysed in IP buffer, cleared by centrifugation at 10,000×g for 30 min, and the supernatants were incubated for 4 hr at 4° C. with anti-FLAG (M2) agarose (Sigma). To analyze the interaction of TIF-IA with TIF-IB/SL1, the immunoprecipitates were washed with IP buffer and TIF-IB/SL1 was visualized on immunoblots with α-TAFI110 antibodies. To monitor the interaction of TIF-IA with Pol I, the immunoprecipitates were washed with IP buffer containing 600 mM NaCl and Pol I was analyzed on Western blots using antibodies against the second largest subunit of Pol I (RPA116) or PAF67 (Seither et al., J. Biol. Chem. 382 (2001), 1163-1170).
(§3) Given the importance of mTOR-mediated alterations in the phosphorylation pattern on TIF-IA activity, one could predict that either phosphorylation of S199, dephosphorylation of S44 or both regulate the interaction of TIF-IA with the Pol I transcription apparatus. It was therefore examined whether the S→A or S→D point mutant(s) were capable of interacting with Pol I and/or TIF-IB/SL1. For this, TIF-IA was precipitated from cells overexpressing either FLAG-tagged wild-type TIF-IA or the respective S199 and S44 mutant(s), and co-precipitated Pol I and TIF-IB/SL1 were visualized on Western blots.

Pol I transcription [1] = experiment: In vitro transcription: TIF-IA mutants restoring rDNA transcription of nuclear extract from density-arrested FM3A cells; type: biochemical, murine
Protocol: (A) Transcriptional activity of TIF-IA mutants in vitro. FLAG-tagged wild-type TIF-IA and the indicated single or double point mutants were overexpressed in HEK293T cells, immunopurified, and 20 and 40 ng were assayed for their capability to restore rDNA transcriptional activity of nuclear extract from density-arrested FM3A cells. The amount and purity of TIF-IA were estimated on silver-stained SDS-polyacrylamide gels and Western blots (data not shown).
(A) Transcriptional activity of TIF-IAS199A and TIF-IAS199D in vitro. FLAG-tagged wild-type TIF-IA and the indicated mutants were immunopurified from HEK293T cells, and 30 and 60 ng were assayed for their capability to restore transcriptional activity of nuclear extract from density-arrested FM3A cells. The amount and purity of TIF-IA were estimated on silver-stained SDS-polyacrylamide gels (data not shown).
(B) Transcriptional activity of TIF-IAS44A in vitro. FLAG-tagged wild-type TIF-IA and the indicated mutant were assayed for their transcriptional activity in vitro.
(§4) Nuclear extracts were prepared from exponentially growing (8×10^5 cells/ml), density-arrested or PD98059-treated (CN Bioscience, Bad Soden, Germany) 40 μM, 0.5 hr) or rapamycin-treated FM3A cells (ATCC, Manassas, USA). 25 μl assays contained 50 ng of template DNA (pMr600/EcoRI), 30 μg nuclear extract proteins and 12 mM Hepes-KOH, [pH8.0], 0.1 mM EDTA, 5 mM MgCl2, 80 mM KCl, 10 mM creatine phosphate, 12% (v/v) glycerol, 0.66 mM each of ATP, GTP and CTP, 0.01 mM UTP and 0.5 μCi [α-^32P]UTP (5000 Ci/mmol). After incubation for 60 min at 30° C., RNA was extracted and analyzed on non-denaturing 5% polyacrylamide gels
TIF-IA was immunopurified from untransfected NIH3T3 cells or from HEK293T cells overexpressing FLAG-tagged TIF-IA. 4×10^6 cells were lysed in 0.8 ml IP buffer (20 mM Tris-HCl [pH 7.4], 200 mM NaCl, 2 mM EDTA, 2 mM EGTA, 1% Triton X-100, 0.5 mM PMSF, 1 μg/ml aprotinin, 5 μg/ml leupeptin and 1 μg/ml pepstatin A), centrifuged at 10,000 g for 30 min, and the supernatants were incubated for 4 hr at 4° C. with either 10 μg anti-TIF-IA antibodies bound to 20 μl protein G-agarose or with anti-FLAG (M2) agarose (Sigma-Aldrich Corp., Missouri, USA). The immunocomplexes were successively washed with buffer AM (20 mM Tris-HCl [pH 8.0], 5 mM MgCl2, 0.1 mM EDTA, 20% glycerol) containing 400 and 100 mM KCl, respectively. The amount and purity of TIF-IA was estimated on silver-stained polyacrylamide gels and similar amounts of bead-bound TIF-IA were used in in vitro transcription assays. GST fusion proteins were expressed in E. coli BL21(DE3) and purified on Glutathione-Sepharose 4B according to the manufacturer's instructions.
To assess the functional relevance of S633 and S649 phosphorylation on transcriptional activity, the respective S→A and S→D single or double point mutants were purified from transfected cells and assayed for their capability to rescue transcription of extracts from density-arrested cells. […] Thus, phosphorylation of TIF-IA at S649 and S633 is required for transcriptional activity.
Phosphorylation of peptide a should inhibit TIF-IA activity, while phosphorylation of peptide b, e.g. S44, should augment TIF-IA activity.

TIF-IB/SL1 = experiment: Co-immunoprecipitation of TIF-IB/SL1 with TIF-IA mutants from HEK293T cells; type: binding, human
Protocol: as §1, §2, §3

Pol I transcription [2] = experiment: Pol I reporter plasmid pMrl930-BH co-transfection in NIH3T3 cells, Northern blot; type: cell-based; conditions: 0.25, 0.5 or 1 μg expression vector
Protocol: (C) Phosphorylation by RSK is necessary and sufficient for enhancing TIF-IA activity in vivo. NIH3T3 cells were co-transfected with 3 μg pMrl930-BH and lor 2.5 μg of pMT2-HA-CA-RSK2 (lanes 2, 3). Transcripts from the reporter plasmid were monitored on Northern blots. An ethidium bromide stain of cellular 18S and 28S rRNA is shown below.
(C) Transcriptional activity of TIF-IAS44A in vivo. NIH3T3 cells were cotransfected with 2.5 μg Pol I reporter plasmid (pMrl930-BH) and 0.25, 0.5 or 1 μg of pcDNA3.1-TIF-IA (lanes 2-4), TIF-IAS44A (lanes 5-7). Transcripts from the reporter plasmid were monitored on Northern blots. The amount of cellular 18S and 28S rRNA is shown below.
NIH3T3, HEK293T and CLL39 cells were cultured in Dulbecco's modified Eagles medium (DMEM) supplemented with 10% fetal calf serum. Cells were transfected with 5 μg of DNA per 10^6 cells using the calcium phosphate DNA coprecipitation method. Total RNA was isolated after 48 h and analyzed on Northern blots as described (Voit et al., EMBO J. 18 (1999), 1891-1899). Cellular pre-rRNA levels were monitored by hybridization to antisense RNA complementary to the first 155 nucleotides of unprocessed 45S pre-RNA. Transcripts from the rDNA reporter plasmid were monitored by hybridization to a riboprobe that is complementary to pUC sequences inserted between the rDNA promoter and terminator sequences of pMrl930-BH. […]

HEK293T cells [3] = experiment: Trypan blue staining; type: cell-based; conditions: data not shown
Pol I transcription [4] = experiment: In vitro transcription: TIF-IA mutants added to nuclear extract from exponentially growing FM3A cells; type: biochemical, murine; conditions: 20 and 40 ng added to 15 ug nuclear extract
Protocol: 20 and 40 ng of the indicated TIF-IA mutants were added to 15 ug nuclear extract from exponentially growing FM3A cells and rDNA transcription was assayed.
as §4
Given that phosphorylation of TIF-IA at serine 649 is essential for transcription, excess of TIF-IAS649A should impair Pol I transcription. To test this, we examined the effect of exogenous wild-type and mutant TIF-IA on transcriptional activity of extracts from exponentially growing cells.

HEK293T cells [5] = experiment: Cell enumeration by dual-parameter flow cytometry; type: cell-based; conditions: 60 hr after transfection
Protocol: (C) Cell enumeration by flow cytometry. HEK293T cells expressing wild-type TIF-IA or the S649 mutants were harvested 60 hours after transfection, stained with FITC-conjugated anti-FLAG M2 antibodies and analyzed by dual-parameter flow cytometry in a FACScan™ flow cytometer in the presence of CaliBRITE™ calibration beads. 60,000 events were recorded from each sample. The number of cells expressing FLAG-TIF-IA was calculated from the ratio between FITC-positive cells and counted beads.
HEK293T cells were harvested 60 hr after transfection with pcDNA-FLAG-TIF-IA, fixed with 2% paraformaldehyde and permeabilized with 0.1% Triton X-100 in PBS. […] Cell were analyzed with a FACSCan™ flow cytometer in the presence of CaliBRITE™ beads (Becton Dickinson, San Jose, USA). The number of cells expressing FLAG-TIF-IA was calculated from the ratio between FITC-positive cells and counted beads.
Given the functional significance of ERK/RSK-directed TIF-IA phosphorylation on Pol I transcription, mutations that enhance or abrogate TIF-IA activity may have a positive or negative effect on cell growth. […] The expression of TIF-IA was estimated on Western blots and the cellular growth rate was measured by calcein-AM staining. […] Thus, cellular calcein fluorescence correlates with the amount of viable cells. […]

HEK293T cells [6] = experiment: Quantitative fluorimetric viability assay with calcein-AM; type: cell-based; conditions: 24, 36, 48 and 60 hr after transfection; 2 μM calcein-AM
Protocol: (B) Quantitative fluorimetric viability assay with calcein-AM. HEK293T cells were transfected with TIF-IA or the indicated point mutants. […] Viable cells were measured 24, 36, 48 and 60 hr after transfection by incubation with […] calcein-AM. The gradual increase in fluorescence intensity was recorded with a fluorescence multi-well plate reader for 20 min with an excitation wavelength of 485 nm and an emission wavelength of 530 nm. The proliferation rate of mock-transfected cells and cells overexpressing TIF-IA is shown at the left. Plots show the accumulation of calcein fluorescence (arbitrary units) against time. Growth rates calculated from linear regression curves are shown at the right. Values are presented as the mean±SD from three independent experiments performed in duplicates.
Conversion of calcein-AM (calcein acetoxymethyl ester, (CN Bioscience GmbH, Bad Soden, Germany) to calcein was used to measure cell proliferation. 12 hr after transfection, HEK293T cells were seeded to 96-well micro-plates at 1×10^4 cells/well. After 24, 36, 48 and 60 hr, cells were washed with PBS, incubated with 2 μM calcein-AM, and the gradual increase in fluorescence intensity within the cells was recorded by a fluorescence multi-well plate reader (CytoFluor Series 4000/TC, PerSeptive Biosystems, (Applied Biosystems, Forster City, USA) for 20 min in 1 min intervals. Excitation wavelength used for measurements of fluorescence was 485 nm with a bandwidth of 20 nm; emission wavelength was 530 nm with a bandwidth of 25 nm. Under the experimental conditions used, there is a direct correlation between the accumulation ratio of intracellular calcein fluorescence and the number of viable cells. The data from three independent experiments were analyzed by Sigmaplot and expressed as the mean±standard deviation. For statistical analysis, student's t test was used. Differences with a P<0.01 were considered statistically significant.
Given the functional significance of ERK/RSK-directed TIF-IA phosphorylation on Pol I transcription, mutations that enhance or abrogate TIF-IA activity may have a positive or negative effect on cell growth. To test this, HEK293T cells were transfected with cDNAs encoding wild-type or mutant TIF-IA which harbor single or double point mutations at S649 and S633. The expression of TIF-IA was estimated on Western blots and the cellular growth rate was measured by calcein-AM staining. Calcein-AM is a non-fluorescent, hydrophobic compound that is rapidly hydrolyzed by intracellular esterases releasing hydrophilic fluorescent calcein. Thus, cellular calcein fluorescence correlates with the amount of viable cells. […] Cells expressing FLAG-tagged wild-type or mutant TIF-IA were stained with FITC-conjugated anti-FLAG antibodies, identified by FACS and cell numbers were calculated by measuring the ratio of stained cells versus an internal standard. […] Conversely, the number of cells expressing TIF-IAS649A was 33% lower than the control. […] Taken together, the results reveal a striking correlation between phosphorylation of TIF-IA at serine 649, cellular rRNA synthetic activity and cell cycle progression.

HEK293T cells [7] = experiment: Relative DNA content of sorted cells by FACS analysis; type: cell-based
Protocol: HEK293T cells were harvested 60 hr after transfection with pcDNA-FLAG-TIF-IA, fixed with 2% paraformaldehyde and permeabilized with 0.1% Triton X-100 in PBS. Transfected cells were labeled by incubation for 1 hr with 2 μg/ml FITC-conjugated anti-M2 antibodies (Sigma) and subsequently stained with […] propidium iodide (Sigma). Cell were analyzed with a FACSCan™ flow cytometer in the presence of CaliBRITE™ beads (Becton Dickinson, San Jose, USA). The number of cells expressing FLAG-TIF-IA was calculated from the ratio between FITC-positive cells and counted beads.
Given the functional significance of ERK/RSK-directed TIF-IA phosphorylation on Pol I transcription, mutations that enhance or abrogate TIF-IA activity may have a positive or negative effect on cell growth. To test this, HEK293T cells were transfected with cDNAs encoding wild-type or mutant TIF-IA which harbor single or double point mutations at S649 and S633. The expression of TIF-IA was estimated on Western blots and the cellular growth rate was measured by calcein-AM staining. […] Thus, cellular calcein fluorescence correlates with the amount of viable cells. […] Cells expressing FLAG-tagged wild-type or mutant TIF-IA were stained with FITC-conjugated anti-FLAG antibodies, identified by FACS and cell numbers were calculated by measuring the ratio of stained cells versus an internal standard. […]

TIF-IAS44A: TIF-IA mutant, S44 mutated to alanine
interaction with Pol I (co-precipitated RPA116) (Pol I): interacted with both Pol I and TIF-IB/SL1 | capability to rescue transcription of extracts from density-arrested cells (Pol I transcription [1]; S199 and S44 mutants, 30 and 60 ng): abolishment of transcriptional activity of TIF-IA | interaction with TIF-IB/SL1 (co-precipitated TAFI110) (TIF-IB/SL1): interacted with both Pol I and TIF-IB/SL1 | transcription of the Pol I reporter (Pol I transcription [2]): inactive

TIF-IAS633AS649D: printed once in b155, probably a misprint of TIF-IAS633AS649A
cell viability as cause of growth inhibition (HEK293T cells [3]): not due to decreased cell viability

TIF-IAS649D: TIF-IA point mutant, serine 649 replaced by aspartic acid
effect on transcriptional activity of extracts from exponentially growing cells (Pol I transcription [4]): enhanced Pol I transcription | capability to rescue transcription of extracts from density-arrested cells (Pol I transcription [1]; S633/S649 mutants, 20 and 40 ng): activated Pol I transcription to a similar or even higher level compared to wild-type TIF-IA | number of cells higher compared to cells overexpressing wild-type TIF-IA (HEK293T cells [5]): 43% | cellular growth rate by calcein-AM staining (HEK293T cells [6]): accelerated cell growth | increase of G2/M-phase cells (HEK293T cells [7]): 50%
